From paper PMC3827032, “Functional Analysis of Hsp70 Inhibitors” (PLoS ONE, 2013) come the findings set out here.

Broadly, the Km is the concentration of substrate that gives half-maximal velocity. One may read the Kd as the constant that tells how readily two partners part at equilibrium. Lower therefore signals tighter binding.

The target in test [1] is T1, Hsp70 (Homo sapiens, UniProt P0DMV8). Set-up: gene HSPA1A.
The target of test [2] is T1, Hsp70. The test can be described thus: crystal structure of NBD ([…] Å), ITC ([…]), SPR ([…]), DSC, ATPase inhibition (Ki […]; […] with Hdj1). The class given is binding. Set-up: gene HSPA1A; full-length (ITC, SPR); NBD residues 1–382 (crystal structure).
Test [3] has as its target T1, Hsp70. The test can be described thus: ITC ([…]), SPR ([…]), DSC (Tm +[…]°C). Details: gene HSPA1A; full-length, nucleotide-free. It counts as binding.

SMILES strings stand for the structures.

T1 sequence (P0DMV8 2-641): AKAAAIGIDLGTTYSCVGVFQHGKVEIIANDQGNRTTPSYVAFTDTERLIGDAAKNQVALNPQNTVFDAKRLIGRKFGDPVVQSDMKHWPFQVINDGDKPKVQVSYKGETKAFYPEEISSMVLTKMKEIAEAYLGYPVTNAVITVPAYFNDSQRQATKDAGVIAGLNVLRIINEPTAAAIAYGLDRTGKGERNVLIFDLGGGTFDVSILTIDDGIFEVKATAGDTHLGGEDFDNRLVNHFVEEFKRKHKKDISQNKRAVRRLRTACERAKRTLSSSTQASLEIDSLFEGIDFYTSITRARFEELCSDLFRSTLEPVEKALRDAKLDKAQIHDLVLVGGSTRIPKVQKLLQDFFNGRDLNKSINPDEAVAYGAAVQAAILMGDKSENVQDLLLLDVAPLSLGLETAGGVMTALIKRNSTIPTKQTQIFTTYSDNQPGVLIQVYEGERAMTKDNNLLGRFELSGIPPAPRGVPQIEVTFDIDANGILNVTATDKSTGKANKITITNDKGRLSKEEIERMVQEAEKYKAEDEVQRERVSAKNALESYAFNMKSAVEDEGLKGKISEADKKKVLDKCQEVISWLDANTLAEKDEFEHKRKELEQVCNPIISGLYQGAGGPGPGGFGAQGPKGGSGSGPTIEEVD

As for `Nc1ncnc2c1ncn2[C@@H]1O[C@H](COP(=O)(O)OP(=O)(O)OP(=O)(O)O)[C@@H](O)[C@H]1O` [ATP], in test [1], the Km worked out at 9.9 ± 1.3 µM.
`N#Cc1ccc(COC[C@H]2O[C@@H](n3c(NCc4ccc(Cl)c(Cl)c4)nc4c(N)ncnc43)[C@H](O)[C@@H]2O)cc1` [VER-155008] yielded a Kd in test [2] of 0.228 ± 0.016 µM.
Turning to `Nc1ncnc2c1ncn2[C@@H]1O[C@H](COP(=O)(O)OP(=O)(O)O)[C@@H](O)[C@H]1O` [ADP], in test [3], the dissociation constant Kd was 0.0077 ± 0.0004 µM.
